The values below come from patent US8124647B2 (priority 2002, dated 2012).

The target of assay [1] is T1, human androgen receptor (Homo sapiens, UniProt P10275).
T1 construct: expressed in transfected cells; host or cells: CHO cells, cell line CHO-AR-pMMTV-LUC 1G12-A5-CA
T1 sequence (P10275 1-920): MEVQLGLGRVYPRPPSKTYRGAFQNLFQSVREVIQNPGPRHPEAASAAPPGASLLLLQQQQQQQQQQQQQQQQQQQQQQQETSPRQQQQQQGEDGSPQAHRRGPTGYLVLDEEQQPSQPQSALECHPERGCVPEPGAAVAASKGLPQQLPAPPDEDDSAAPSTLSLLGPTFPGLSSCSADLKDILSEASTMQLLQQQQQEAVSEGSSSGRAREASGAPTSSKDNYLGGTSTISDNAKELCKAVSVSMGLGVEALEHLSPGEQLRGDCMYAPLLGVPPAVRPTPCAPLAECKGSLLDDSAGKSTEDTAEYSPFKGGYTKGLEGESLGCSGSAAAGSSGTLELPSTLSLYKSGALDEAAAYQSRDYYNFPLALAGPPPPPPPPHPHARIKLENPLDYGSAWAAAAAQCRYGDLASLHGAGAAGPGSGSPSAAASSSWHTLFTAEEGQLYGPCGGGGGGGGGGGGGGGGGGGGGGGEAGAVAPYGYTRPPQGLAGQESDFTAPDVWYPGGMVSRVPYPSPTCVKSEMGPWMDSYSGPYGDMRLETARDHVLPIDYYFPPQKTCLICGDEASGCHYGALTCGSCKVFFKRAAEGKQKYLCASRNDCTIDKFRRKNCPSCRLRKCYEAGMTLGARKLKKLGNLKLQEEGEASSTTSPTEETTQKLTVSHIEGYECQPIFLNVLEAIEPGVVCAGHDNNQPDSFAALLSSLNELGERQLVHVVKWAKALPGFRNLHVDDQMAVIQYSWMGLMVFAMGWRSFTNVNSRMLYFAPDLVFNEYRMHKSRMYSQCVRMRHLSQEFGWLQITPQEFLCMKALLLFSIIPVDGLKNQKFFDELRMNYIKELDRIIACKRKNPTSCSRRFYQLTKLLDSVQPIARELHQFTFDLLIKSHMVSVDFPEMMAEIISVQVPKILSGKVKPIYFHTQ
Briefly: cell-based. Conditions: in the presence of 1 nM DHT. The protocol:
(§1) Compounds were tested for their Androgen Receptor activity in a transactivation assay and in a binding assay.
(§2) The (anti-)androgenic activity of test compounds (EC50 and intrinsic activity) was determined in an in vitro bioassay of Chinese hamster ovary (CHO) cells stably transfected with the human androgen receptor expression plasmid and a reporter plasmid in which the MMTV-promoter is linked to the luciferase reporter gene. The cell-line CHO-AR-pMMTV-LUC 1G12-A5-CA is described in Schoonen et al. (2000), Journal of Steroid Biochemistry and Molecular Biology 74(4):213-222. The antiandrogenic activity of a test compound was determined by the inhibition of the transactivation via the androgen receptor of the enzyme luciferase in the presence of 1 nM DHT (5α-dihydrotestosterone, 17β-hydroxy-5α-androstan-3-one). Intrinsic activity of antiandrogenic activity was determined in the presence of the reference antiandrogen 2-Hydroxy-2-methyl-N-(4-nitro-3-trifluoromethyl-phenyl)-propionamide(Hydroxyflutamide), and set at 100%. For androgenic activity, maximal intrinsic activity in the presence of 100 nM DHT was set at 100%.

The target of assay [2] is T1, human androgen receptor. Briefly: androgenic activity (EC50 and intrinsic activity), transactivation bioassay in CHO-AR-pMMTV-LUC cells (Table 4). It counts as cell-based. The procedure: as §1, §2
Where [3] appears, read: antiandrogenic activity, read-out: ant EC50.
The mark [4] stands for this setting: androgenic activity, read-out: ago EC50.
[5] abbreviates: ant EC50, antiandrogenic activity.

For orientation: EC50 means the midpoint of the concentration-response curve.

Consider `COc1ccc2c([S+]([O-])c3ccccc3[N+](=O)[O-])cn(Cc3cc(F)cc(F)c3)c2c1` (stereo not shown) [Compound 64, 1-(3,5-Difluoro-benzyl)-6-methoxy-3-(2-nitro-benzenesulfinyl)-1H-indole], for which the EC50 on human androgen receptor [1] (setting [3]) is below 1000 nM; on human androgen receptor [2] (setting [4]), above 10000 nM.
The like results for `COc1ccc2c(Sc3ccccc3[N+](=O)[O-])cn(Cc3csc(C)n3)c2c1` [Compound 79] were, in that order, above 10000 nM and 5 to 100 nM.
For `O=C(c1ccc2c(Sc3ccccc3[N+](=O)[O-])cn(Cc3cc(F)cc(F)c3)c2c1)N1CCCC1` [Compound 27], the EC50 was above 10000 nM at human androgen receptor [1] (setting [3]) and 5 to 100 nM at human androgen receptor [2] (setting [4]).
With `COc1ccc2c(Sc3ccccc3[N+](=O)[O-])cn(Cc3cccc(C)c3F)c2c1` [Compound 2], the EC50 at human androgen receptor [1] (setting [3]) was above 10000 nM; at human androgen receptor [2] (setting [4]), below 1000 nM.
The like results for `O=[N+]([O-])c1ccccc1Sc1cn(Cc2ccccc2)c2ccccc12` [Compound 90] were, in that order, above 10000 nM and below 1000 nM.
With `COc1ccc2c(Sc3ccccc3[N+](=O)[O-])cn(Cc3cccc([N+](=O)[O-])c3)c2c1` [Compound 74], the EC50 on human androgen receptor [1] (setting [5]) is above 10000 nM; at human androgen receptor [2] (ago EC50, androgenic activity), below 5 nM.
For `COc1ccc2c(Sc3ccccc3[N+](=O)[O-])cn(Cc3ccccc3F)c2c1` [Compound 5], the EC50 was above 10000 nM at human androgen receptor [1] (setting [3]) and below 1000 nM at human androgen receptor [2] (setting [4]).
The like results for `COc1ccc2c(Sc3ccccc3[N+](=O)[O-])cn(Cc3ccc(Cl)cc3)c2c1` [Compound 81] were, in that order, below 5 nM and below 1000 nM.
The like results for `O=[N+]([O-])c1ccccc1Sc1cn(Cc2cc(F)cc(F)c2)c2cc(CO)ccc12` [Compound 24] were, in that order, above 10000 nM and 5 to 100 nM.
The like results for `COc1ccc2c(Sc3ccccc3[N+](=O)[O-])cn(Cc3ccc(C#N)cc3)c2c1` [Compound 82] were, in that order, above 10000 nM and 5 to 100 nM.
`CCCNC(=O)c1ccc2c(Sc3ccccc3[N+](=O)[O-])cn(Cc3cc(F)cc(F)c3)c2c1` [Compound 48]: the EC50 at human androgen receptor [1] (setting [3]) was below 1000 nM; at human androgen receptor [2] (setting [4]) it was 5 to 100 nM.
The like results for `COc1ccc2c(Sc3ccccc3CO)cn(Cc3cc(F)cc(F)c3)c2c1` [Compound 16, {2-[1-(3,5-Difluoro-benzyl)-6-methoxy-1H-indol-3-ylsulfanyl]-phenyl}-methanol] were, in that order, 5 to 100 nM and 5 to 100 nM.
The like results for `COc1ccc2c(Sc3ccccc3[N+](=O)[O-])cn(Cc3ccccc3Cl)c2c1` [Compound 3] were, in that order, above 10000 nM and below 1000 nM.
The like results for `CC(=O)Nc1ccc2c(Sc3ccccc3[N+](=O)[O-])cn(Cc3cc(F)cc(F)c3)c2c1` [Compound 58, N-[1-(3,5-Difluoro-benzyl)-3-(2-nitro-phenylsulfanyl)-1H-indol-6-yl]-acetamide] were, in that order, above 10000 nM and below 5 nM.
For `COc1ccc2c(Sc3ccccc3[N+](=O)[O-])cn(Cc3cc(F)ccc3F)c2c1` [Compound 1], the EC50 at human androgen receptor [1] (setting [3]) is above 10000 nM; at human androgen receptor [2] (setting [4]), 5 to 100 nM.
The matching figures for `O=[N+]([O-])c1ccccc1Sc1cn(Cc2cc(F)cc(F)c2)c2cc(C(F)(F)F)ccc12` [Compound 23]: above 10000 nM and below 5 nM.
Take `CCNC(=O)c1ccc2c(Sc3ccccc3[N+](=O)[O-])cn(Cc3cc(F)cc(F)c3)c2c1` [Compound 45]: the results for the EC50 at human androgen receptor [1] (setting [3]) and on human androgen receptor [2] (setting [4]) were above 10000 nM and below 5 nM, respectively.
On to `COCCNC(=O)c1ccc2c(Sc3ccccc3[N+](=O)[O-])cn(Cc3cc(F)cc(F)c3)c2c1` [Compound 38], for which the EC50 on human androgen receptor [1] (setting [3]) was above 10000 nM; on human androgen receptor [2] (setting [4]), below 5 nM.
The matching figures for `COc1ccc2c(Sc3ccccc3[N+](=O)[O-])cn(Cc3cccc(C#N)c3)c2c1` [Compound 68]: above 10000 nM and below 5 nM.
The matching figures for `COc1ccc2c(Sc3ccccc3[N+](=O)[O-])cn(CC3CCCCO3)c2c1` (stereo not shown) [Compound 11]: above 10000 nM and 5 to 100 nM.
For `O=[N+]([O-])c1ccccc1Sc1cn(Cc2cc(F)cc(F)c2)c2ccccc12` [Compound 52], the EC50 on human androgen receptor [1] (setting [3]) is above 10000 nM; at human androgen receptor [2] (setting [4]), 5 to 100 nM.
The like results for `CC(C)CNC(=O)c1ccc2c(Sc3ccccc3[N+](=O)[O-])cn(Cc3cc(F)cc(F)c3)c2c1` [Compound 42] were, in that order, above 10000 nM and 5 to 100 nM.
For the compound `COc1ccc2c(c1)c(Sc1ccccc1[N+](=O)[O-])cn2Cc1ccccc1` [Compound 91], the figures for the EC50 at human androgen receptor [1] (setting [3]) and on human androgen receptor [2] (setting [4]) were 1000 to 10000 nM and above 10000 nM, respectively.
The like results for `O=[N+]([O-])c1ccccc1Sc1cn(Cc2cc(F)cc(F)c2)c2ccc(F)cc12` [Compound 53] were, in that order, above 10000 nM and 5 to 100 nM.
As for `O=[N+]([O-])c1ccc2c(Sc3ccccc3[N+](=O)[O-])cn(Cc3cc(F)cc(F)c3)c2c1` [Compound 60], the concentration giving a half-maximal response (EC50) was above 10000 nM on human androgen receptor [1] (setting [5]) and below 5 nM on human androgen receptor [2] (ago EC50, androgenic activity).
For the compound `COc1ccc2c(Sc3ccccc3[N+](=O)[O-])cn(Cc3cnc(Cl)s3)c2c1` [Compound 87], the results for the EC50 on human androgen receptor [1] (setting [3]) and on human androgen receptor [2] (setting [4]) were above 10000 nM and 5 to 100 nM, respectively.
The like results for `CCN(CC)C(=O)c1ccc2c(Sc3ccccc3[N+](=O)[O-])cn(Cc3cc(F)cc(F)c3)c2c1` [Compound 32] were, in that order, below 1000 nM and 5 to 100 nM.
The matching figures for `COc1ccc2c(Sc3ccccc3[N+](=O)[O-])cn(Cc3cc(Cl)cc(Cl)c3)c2c1` [Compound 15]: above 10000 nM and 5 to 100 nM.
In the case of `CNC(=O)c1ccc2c(Sc3ccccc3[N+](=O)[O-])cn(Cc3cc(F)cc(F)c3)c2c1` [Compound 47, 1-(3,5-Difluoro-benzyl)-3-(2-nitro-phenylsulfanyl)-1H-indole-6-carboxylic acid methylamide], the EC50 is above 10000 nM on human androgen receptor [1] (setting [3]) and below 5 nM on human androgen receptor [2] (setting [4]).
The like results for `COc1ccc2c(Sc3ccccc3[N+](=O)[O-])cn(Cc3ccc(Cl)s3)c2c1` [Compound 88] were, in that order, above 10000 nM and 5 to 100 nM.
The matching figures for `COc1ccc2c(Sc3ccccc3[N+](=O)[O-])cn(Cc3cc(C)on3)c2c1` [Compound 13]: above 10000 nM and below 1000 nM.
The matching figures for `O=[N+]([O-])c1ccccc1Sc1cn(Cc2cc(F)cc(F)c2)c2cc(Cl)ccc12` [Compound 25]: above 10000 nM and below 5 nM.
For the compound `O=C(NCc1ccccc1)c1ccc2c(Sc3ccccc3[N+](=O)[O-])cn(Cc3cc(F)cc(F)c3)c2c1` [Compound 43], the EC50 was below 1000 nM at human androgen receptor [1] (setting [3]) and 5 to 100 nM on human androgen receptor [2] (setting [4]).
The like results for `COc1ccc2c(Sc3ccccn3)cn(Cc3cc(F)cc(F)c3)c2c1` [Compound 65, 1-(3,5-Difluoro-benzyl)-6-methoxy-3-(pyridin-2-ylsulfanyl)-1H-indole] were, in that order, above 10000 nM and 5 to 100 nM.
The like results for `O=[N+]([O-])c1ccccc1Sc1cn(Cc2cc(F)cc(F)c2)c2cc(Br)ccc12` [Compound 22] were, in that order, above 10000 nM and 5 to 100 nM.
